From patent US20260226084A1, “DUAL RAF AND TUBULIN INHIBITORS AND METHODS OF USE THEREOF” (Deciphera Pharmaceuticals, LLC, priority 2023, published 2026) come the findings set out here.

Read-outs that look alike come from different tables or passages of the source.

For test [1], the target named is T1, B-Raf kinase (SEQ ID NO: 1) (Homo sapiens, UniProt P15056).
T1 construct: GST (N); purchased Sigma
In words: Biochemical Assay for B-Raf (coupled pyruvate kinase/lactate dehydrogenase assay). To be noted: 1 mM ATP; read-out: BRAF (inhibition of biochemical activity, IC50).

For test [2], the target named is T2, C-Raf kinase (SEQ ID NO: 2) (Homo sapiens, UniProt P04049, Y340D/Y341D).
T2 construct: C-Raf residues 306-end; Y340D, Y341D with; GST (N); purchased Sigma
T2 sequence (P04049 307-648 Y340D/Y341D): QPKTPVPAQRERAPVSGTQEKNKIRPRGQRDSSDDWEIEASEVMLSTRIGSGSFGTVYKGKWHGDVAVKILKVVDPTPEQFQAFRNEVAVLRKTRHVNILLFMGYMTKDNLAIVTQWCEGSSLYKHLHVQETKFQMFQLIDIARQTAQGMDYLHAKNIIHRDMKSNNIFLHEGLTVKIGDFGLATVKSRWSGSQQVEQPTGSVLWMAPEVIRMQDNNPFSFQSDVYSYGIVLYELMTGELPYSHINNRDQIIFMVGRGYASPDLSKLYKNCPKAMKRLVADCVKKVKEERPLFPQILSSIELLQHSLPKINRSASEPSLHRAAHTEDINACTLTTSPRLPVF
The experiment in a line: Biochemical Assay for C-Raf (coupled pyruvate kinase/lactate dehydrogenase assay). To be noted: 1 mM ATP; read-out: CRAF (inhibition of biochemical activity, IC50).

Another test relates to MiaPaca-2 cells. The experiment in a line: MiaPaca-2 Cell Proliferation Assay. Format: cell-based. To be noted: Table 2, read-out: Inhibition of cell proliferation in MiaPaca-2 (IC50 class). On the procedure:
Miapaca-2 cells (catalog #CRL-1420) are obtained from the American Type Culture Collect (ATTC, Manassas, VA). Briefly, cells were grown in DMVEM supplemented with 10 characterized fetal bovine serum (Invitrogen, Carlsbad, CA), 2.5% New Zealand sourced horse serum and 1 Penicillin/Streptomycin/L-Glutamine at 37° C., 5 CO2, and 95% humidity. Cells are expanded until reaching 70-95% confluency at which point they are sub-cultured or harvested for assay use. A serial dilution of test compound is dispensed into a 96-well black clear bottom plate in triplicate. Three thousand cells are added per well in 200 μL complete growth medium in the 96-well plate. Plates are incubated for 67 to 72 h at 37° C., 5% CO2, and 95% humidity. At the end of the incubation, 40 μL of a 440 μM solution of resazurin (Sigma, St. Louis, MO) in PBS is added to each well of the plate and plates are incubated for an additional 5 to 6 h at 37° C., 5% CO2, and 95% humidity. Plates are read on a Synergy2 or equivalent reader (Biotek, Winooski VT) using an excitation of 540 nm and an emission of 600 nm. Data is analyzed using Prism software (Graphpad, San Diego, CA) to calculate IC50 values.

The next test deals with HCT-116 cells. In words: HCT-116 Cell Proliferation Assay. The settings on record: Table 2, read-out: Inhibition of cell proliferation in HCT-116 (IC50 class). Format: cell-based. How it is done:
HCT-116 cells (catalog #CCL-247) are obtained from the American Type Culture Collect (ATCC, Manassas, VA). Briefly, cells are grown in McCoy's 5A supplemented with 10% characterized fetal bovine serum (Invitrogen, Carlsbad, CA) and 1% Penicillin/Streptomycin/L-Glutamine at 37° C., 5% CO2, and 95% humidity. Cells are expanded until reaching 70-95% confluency at which point they are subcultured or harvested for assay use. A serial dilution of test compound is dispensed into a 384-well black clear bottom plate in triplicate. 375 cells are added per well in 50 μL complete growth medium in the 384-well plate. Plates are incubated for 67 to 72 hours at 37° C., 5% CO2, and 95% humidity. At the end of the incubation, 40 μL of a […] solution of resazurin (Sigma, St. Louis, MO) in PBS is added to each well of the plate and plates are incubated for an additional 4 to 5 h at 37° C., 5% CO2, and 95% humidity. Plates are read on a Synergy2 or equivalent reader (Biotek, Winooski, VT) using an excitation of 540 nm and an emission of 600 nm. Data is analyzed using Prism software (Graphpad, San Diego, CA) to calculate IC50 values.

Another test relates to HPAF-II cells. The experiment in a line: HPAF-II Cell Proliferation Assay. The test is classed as cell-based. To be noted: HPAF-II cells, Table 2, read-out: Inhibition of cell proliferation in HPAF-II (IC50 class). How it is done:
(§1) HPAF-II cells (catalog #CRL-1997) are obtained from the American Type Culture Collect (ATCC, Manassas, VA). Briefly, cells are grown in Minimum Essential Media supplemented with 10% characterized fetal bovine serum (Invitrogen, Carlsbad, CA) and 1% Penicillin/Streptomycin/L-Glutamine at 37° C., 5% CO2, and 95% humidity. Cells are expanded until reaching 70-95% confluency at which point they are sub-cultured or harvested for assay use. A serial dilution of test compound is dispensed into a 384-well black clear bottom plate in triplicate. 750 cells are added per well in 50 μL complete growth medium in the 384-well plate. Plates are incubated for 115 to 120 hours at 37° C., 5% CO2, and 95% humidity. At the end of the incubation, 40 μL of a 440 μM solution of resazurin (Sigma, St. Louis, MO) in PBS is added to each well of the plate and plates are incubated for an additional 18 to 24 hours at 37° C., 5% CO2, and 95% humidity. Plates are read on a Synergy2 or equivalent reader (Biotek, Winooski, VT) using an excitation of 540 nm and an emission of 600 nm. Data is analyzed using Prism software (Graphpad, San Diego, CA) to calculate IC50 values.

A further test relates to Pa16c cells. In words: Pa16c Cell Proliferation Assay. Format: cell-based. To be noted: Table 2, read-out: Inhibition of cell proliferation in Pa16c (IC50 class). How it is done: as §1, with “Pa16c” for “HPAF-II”, “cells” for “cells (catalog #CRL-1997)”, “Dr. Channing Der, University of North Carolina at Chapel Hill.” for “the American Type Culture Collect (ATCC, Manassas, VA).”, “Dulbecco's Modified Eagle Medium” for “Minimum Essential Media”, “67” for “115”, “72 h” for “120 hours”

Setting [3] is: Homo sapiens, MIA PaCa-2, MiaPaca-2 cells.
Setting [4] is: Homo sapiens, HCT-116, HCT-116 cells.

T1 sequence (P15056 416-766): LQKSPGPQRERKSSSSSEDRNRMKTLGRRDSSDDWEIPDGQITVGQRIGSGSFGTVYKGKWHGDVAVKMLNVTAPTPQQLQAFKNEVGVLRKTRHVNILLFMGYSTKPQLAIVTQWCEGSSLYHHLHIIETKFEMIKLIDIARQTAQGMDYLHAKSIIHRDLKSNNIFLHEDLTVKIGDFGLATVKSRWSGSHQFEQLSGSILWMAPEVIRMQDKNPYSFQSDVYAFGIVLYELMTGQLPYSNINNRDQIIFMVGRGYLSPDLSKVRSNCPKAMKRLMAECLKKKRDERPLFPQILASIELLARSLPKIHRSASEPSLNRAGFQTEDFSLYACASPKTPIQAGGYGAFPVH

Turning to `COC(=O)Nc1cc(-c2cncc(-c3cc(NC(=O)c4ccc(C(F)(F)F)nc4)ccc3C)c2)ncn1` [Example 76], the IC50 in test [1] is under 100 nM; in test [2], under 100 nM; in the test on MiaPaca-2 cells (MiaPaca-2 cells) it was 1000 to 10000 nM; with HCT-116 cells (HCT-116 cells) it was 1000 to 10000 nM; with HPAF-II cells, 1000 to 10000 nM; with Pa16c cells, 1000 to 10000 nM.

`Cc1ccc(NC(=O)c2cnc(C(F)(F)F)nc2)cc1-c1cc(N[C@H](C)CO)nc(-c2cn[nH]c2)c1` [Example 133]: the IC50 is 100 to 500 nM in test [1]; under 100 nM in test [2]; 100 to 500 nM with MiaPaca-2 cells (setting [3]); 100 to 500 nM with HCT-116 cells (setting [4]); 1000 to 10000 nM in the test on HPAF-II cells (Homo sapiens, HPAF-II); 1000 to 10000 nM with Pa16c cells.

As for `Cc1ccc(NC(=O)c2cc(C3CC3)cnn2)cc1-c1cc(NCCO)nc(-c2ccnc(NC(=O)C3CC3)c2)n1` [Example 103], the IC50 is under 100 nM in test [1]; under 100 nM in test [2]; 500 to 1000 nM in the test on MiaPaca-2 cells (setting [3]); under 100 nM in the test with HCT-116 cells (setting [4]); 500 to 1000 nM in the test with HPAF-II cells (Homo sapiens, HPAF-II); 1000 to 10000 nM in the test with Pa16c cells.

As to `CNc1cc(-c2cc(-c3cc(NC(=O)c4cc(C(F)(F)F)cnn4)ccc3C)ccn2)ccn1` [Example 50], the IC50 was under 100 nM in test [1]; 100 to 500 nM in test [2]; under 100 nM with MiaPaca-2 cells (setting [3]); 100 to 500 nM in the test on HCT-116 cells (setting [4]); 100 to 500 nM in the test on HPAF-II cells (Homo sapiens, HPAF-II); 100 to 500 nM with Pa16c cells.

For `Cc1ccc(NC(=O)c2cncc(C(F)(F)F)n2)cc1-c1cncc(-c2cc(NC(=O)C3CC3)ncn2)c1` [Example 61], the IC50 is under 100 nM in test [1]; under 100 nM in test [2]; 1000 to 10000 nM with MiaPaca-2 cells (setting [3]); under 100 nM in the test on HCT-116 cells (setting [4]); 1000 to 10000 nM with HPAF-II cells (Homo sapiens, HPAF-II); 1000 to 10000 nM in the test on Pa16c cells.

With `Cc1ccc(NC(=O)c2ccc(C(F)(F)F)nc2)cc1-c1cncc(-c2cc(NC(=O)C3CC3)ncn2)c1` [Example 75], the IC50 in test [1] was under 100 nM; in test [2] it was under 100 nM; in the test with MiaPaca-2 cells (setting [3]), 1000 to 10000 nM; with HCT-116 cells (setting [4]), 1000 to 10000 nM; in the test on HPAF-II cells (Homo sapiens, HPAF-II), 1000 to 10000 nM; with Pa16c cells, 1000 to 10000 nM.

`Cc1ccc(NC(=O)c2ccc(C(F)(F)F)nc2)cc1-c1cncc(-c2ccnc(NC(=O)C3CC3)c2)c1` [Example 72]: the IC50 in test [1] is under 100 nM; in test [2], under 100 nM; with MiaPaca-2 cells (setting [3]) it was 500 to 1000 nM; with HCT-116 cells (setting [4]), 100 to 500 nM; with HPAF-II cells (Homo sapiens, HPAF-II), 500 to 1000 nM; in the test on Pa16c cells it was 1000 to 10000 nM.

In the case of `Cc1cc(-c2cc(NC(=O)c3cc(C(F)(F)F)cnn3)cnc2C)cc(-c2ccnc(NC(=O)C3CC3)c2)n1` [Example 35], the IC50 in test [1] was under 100 nM; in test [2], under 100 nM; with MiaPaca-2 cells (setting [3]) it was 1000 to 10000 nM; in the test on HCT-116 cells (setting [4]), 1000 to 10000 nM; in the test on HPAF-II cells (Homo sapiens, HPAF-II) it was 1000 to 10000 nM; with Pa16c cells, 1000 to 10000 nM.

With `Cc1ccc(NC(=O)c2cc(C(F)(F)F)cnn2)cc1-c1ccnc(-c2ccnc(/N=C/N(C)C)c2)c1` [Example 37, (E)-N-(3-(2′-(((dimethylamino)methylene)amino)-[2,4′-bipyridin]-4-yl)-4-methylphenyl)-5-(trifluoromethyl)pyridazine-3-carboxamide], the IC50 was under 100 nM in test [1]; under 100 nM in test [2]; under 100 nM with MiaPaca-2 cells (setting [3]); 100 to 500 nM with HCT-116 cells (setting [4]); 1000 to 10000 nM in the test with HPAF-II cells (Homo sapiens, HPAF-II); under 100 nM in the test with Pa16c cells.

For the compound `CCn1cc(-c2cc(-c3cc(NC(=O)c4cc(C(F)(F)F)cnn4)ccc3C)ccn2)cn1` [Example 115], the IC50 in test [1] lay within 100 to 500 nM; in test [2], 100 to 500 nM; in the test with MiaPaca-2 cells (setting [3]), 100 to 500 nM; in the test on HCT-116 cells (setting [4]), 100 to 500 nM; with HPAF-II cells (Homo sapiens, HPAF-II), 100 to 500 nM; in the test on Pa16c cells, 100 to 500 nM.

As for `Cc1ccc(NC(=O)c2cc(C(F)(F)F)cnn2)cc1-c1ccnc(-c2ccnc(NCCO)c2)c1` [Example 129], the IC50 in test [1] is 100 to 500 nM; in test [2], under 100 nM; in the test on MiaPaca-2 cells (setting [3]), under 100 nM; in the test with HCT-116 cells (setting [4]), under 100 nM; in the test with HPAF-II cells (Homo sapiens, HPAF-II) it was under 100 nM; with Pa16c cells, 100 to 500 nM.

As for `Cc1ccc(NC(=O)c2cc(C(F)(F)F)cnn2)cc1-c1ccnc(-c2ccnc(NC(=O)C3(C)CC3)c2)c1` [Example 41], the IC50 in test [1] was 100 to 500 nM; in test [2], under 100 nM; with MiaPaca-2 cells (setting [3]) it was 100 to 500 nM; in the test with HCT-116 cells (setting [4]), 100 to 500 nM; in the test on HPAF-II cells (Homo sapiens, HPAF-II) it was 1000 to 10000 nM; with Pa16c cells, under 100 nM.

On to `CC(=O)Nc1cc(-c2cc(-c3cc(NC(=O)c4ccc(C(F)F)nc4)ccc3C)ccn2)ccn1` [Example 1, N-(3-(2′-acetamido-[2,4′-bipyridin]-4-yl)-4-methylphenyl)-6-(difluoromethyl)nicotinamide], for which the IC50 in test [1] was under 100 nM; in test [2], under 100 nM; in the test with MiaPaca-2 cells (setting [3]), under 100 nM; in the test with HCT-116 cells (setting [4]) it was under 100 nM; in the test on HPAF-II cells (Homo sapiens, HPAF-II) it was under 100 nM; with Pa16c cells, under 100 nM.

Regarding `Cc1ccc(NC(=O)c2cc(P(C)(C)=O)cnn2)cc1-c1ccnc(-c2ccnc(NC(=O)C3CC3)c2)c1` [Example 111], the IC50 in test [1] is under 100 nM; in test [2], under 100 nM; in the test with MiaPaca-2 cells (setting [3]) it was 1000 to 10000 nM; in the test on HCT-116 cells (setting [4]), 1000 to 10000 nM; in the test on HPAF-II cells (Homo sapiens, HPAF-II), 1000 to 10000 nM; in the test with Pa16c cells it was 1000 to 10000 nM.

For the compound `CC(=N)Nc1cc(-c2cc(-c3cc(NC(=O)c4cc(C(F)(F)F)cnn4)ccc3C)ccn2)ccn1` [Example 91], the IC50 lay within 100 to 500 nM in test [1]; 100 to 500 nM in test [2]; 500 to 1000 nM in the test on MiaPaca-2 cells (setting [3]); 500 to 1000 nM in the test with HCT-116 cells (setting [4]); 1000 to 10000 nM in the test with HPAF-II cells (Homo sapiens, HPAF-II); 1000 to 10000 nM in the test on Pa16c cells.
